Laboratory results as given in article PMC10987348, “Ammonium nanochelators in conjunction with arginine-specific enzymes in amperometric biosensors for arginine assay” (Mikrochimica Acta, 2023).

Biological target: T1, ADI (Metamycoplasma hominis, UniProt P41141)
T1 construct: gene arcA
Assay: amperometric detection of released ammonium (ADI/nCdCu/GCE electrode)
Type: biochemical
Settings: immobilised enzyme on nCdCu-modified glassy carbon; pH 7.5; -200 mV vs Ag/AgCl

T1 sequence (P41141 2-409): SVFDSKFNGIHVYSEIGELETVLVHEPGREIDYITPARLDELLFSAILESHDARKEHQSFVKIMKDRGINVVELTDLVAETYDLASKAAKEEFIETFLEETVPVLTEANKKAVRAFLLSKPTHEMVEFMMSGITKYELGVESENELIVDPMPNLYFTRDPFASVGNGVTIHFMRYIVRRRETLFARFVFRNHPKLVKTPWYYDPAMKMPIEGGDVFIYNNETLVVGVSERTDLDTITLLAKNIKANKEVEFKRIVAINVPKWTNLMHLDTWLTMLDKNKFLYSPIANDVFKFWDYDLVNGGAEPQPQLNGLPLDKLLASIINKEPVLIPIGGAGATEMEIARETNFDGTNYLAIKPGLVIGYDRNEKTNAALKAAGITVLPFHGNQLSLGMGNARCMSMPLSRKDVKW

N=C(N)NCCC[C@H](N)C(=O)O [L-arginine]
amperometric detection of released ammonium (ADI/nCdCu/GCE electrode): electrocatalytic activity of three bioelectrodes was evaluated by using CV under the addition of Arg
